Values joined by “and” are separate entries in the source; they are usually repeats but may differ in a detail not shown here. Equal entries are not always repeated. Ends that are not written are not given here. Peptide text beside a SMILES is read from it.
What was measured:
S. aureus MN8 = format: cell-based, Staphylococcus aureus
[1] = tested on: TSST-1 production of S. aureus MN8; format: cell-based, Staphylococcus aureus
[2] = rabbit, in vivo

In the case of “SFPTTKTYFPHFDLSHGSAQVK-agarose beads (not fully specified (C-terminus)) [Hbg-3]”, the antimicrobial activity (S. aureus MN8) is reported as “not antimicrobial”, the “viable count (10^8 CFU/mL)” value (S. aureus MN8) is reported as 21 and 22 and 16 and 20 and 23 and the TSST-1 inhibition activity [1] is reported as “retained TSST-1 inhibition activity”.
For SFPTTKTYFPHFDLSHGSAQVK [Hbg-1], the antimicrobial activity (S. aureus MN8) was “No antimicrobial activity was observed” and the “viable count (10^8 CFU/mL)” value (S. aureus MN8) was 20 and 22 and 17 and 21 and 19 and 25.
For SFPTTATYFPAFDLSAGSAQVA [SP-3], the antimicrobial activity (S. aureus MN8) was “lacked antimicrobial”, the “TSST-1 % of No Peptide Control” value [1] was 100 % of No Peptide Control and the TSST-1 inhibition activity [1] was “lacked antimicrobial and TSST-1 inhibition activity”.
In the case of `C[C@H](NC(=O)[C@H](CO)NC(=O)[C@H](CCCCN)NC(=O)[C@H](Cc1c[nH]cn1)NC(=O)[C@H](CO)NC(=O)[C@H](CCCCN)NC(=O)[C@H](CCCCN)NC(=O)[C@H](CCCCN)NC(=O)[C@H](Cc1c[nH]cn1)NC(=O)[C@@H]1CCCN1C(=O)[C@H](CCCCN)NC(=O)[C@H](Cc1ccc(O)cc1)NC(=O)[C@H](CCCCN)NC(=O)[C@H](CCCCN)NC(=O)[C@H](CCCCN)NC(=O)[C@H](CCCCN)NC(=O)[C@@H]1CCCN1C(=O)[C@H](CCCCN)NC(=O)[C@@H](N)CO)C(=O)N[C@@H](CCCCN)C(=O)N[C@@H](CCCCN)C(=O)N[C@@H](CCCCN)C(=O)O` [SP-1] (H-SKPKKKKYKPHKKKSHKSAKKK-OH), the “signs of inflammation and vaginal irritation” value [2] is reported as “No irritation or inflammation was observed”.
For STKPFFYFLHTQVKASPTSHDG [Hbg-2], the antimicrobial activity (S. aureus MN8) was “not antimicrobial”, the “viable count (10^8 CFU/mL)” value (S. aureus MN8) was 24 and 22 and 30 and 25 and 23 and the TSST-1 inhibition activity [1] was “comparably active as Hbg-1”.
In the case of “human neutrophil peptide-2 (CYCRIPACIAGERRYGTCIYQGRLWAFCC; listed as Homo sapiens) [HNP-2, reference compound]”, the antimicrobial activity (S. aureus MN8) is reported as “no antimicrobial activity was observed”, the “inhibition of MN8 growth” value (S. aureus MN8) is reported as “approximately 1 log” and the TSST-1 inhibition activity [1] is reported as “highly inhibitory of production of TSST-1”. The “dose (as low as) giving complete inhibition of TSST-1 production” value [1] was 10^−3 μg/mL.
In the case of “human neutrophil peptide-1 [HNP-1, reference compound]”, the antimicrobial activity (S. aureus MN8) is reported as “no antimicrobial activity was observed”, the “inhibition of MN8 growth” value (S. aureus MN8) is reported as “approximately 1 log” and the TSST-1 inhibition activity [1] is reported as “highly inhibitory of production of TSST-1”. The “dose (as low as) giving complete inhibition of TSST-1 production” value [1] was 10^−3 μg/mL.
